Experimental data from patent US11535629B2, “Dioxoloisoquinolinone derivatives and use thereof” (HANMI PHARMACEUTICAL CO., LTD., priority 2020, dated 2022).
Where two headings read alike, the source gives them in different places.

Legend:
KARPAS-422 cells = experiment: Cell growth inhibition test (CTG method); format: cell-based; conditions: Homo sapiens, KARPAS-422, 168 h, KARPAS-422 (EZH2^Y641N mutant), culturing for 7 days; read-out: Cell growth inhibitory activity (GI50, nM) KARPAS-422 (EZH2^Y641N mutant)
Experimental: The cultured cell strain was prepared at 1.8×10^4 cells/400 μL and placed in a 48-well plate.

EZH1 = EZH1 (Homo sapiens (Human), UniProt Q92800); experiment: EZH1 methyltransferase inhibitory activity (radiometric scintillation proximity assay)
Experimental: The inhibitory activity of the synthesized compounds above against EZH1 or EZH2 methyltransferase was measured. The experiments were consigned to Reaction Biology, and EZH1 or EZH2 activity was measured using a radiometric scintillation proximity assay. […] The buffer solution was comprised of 50 mmol/L Tris-HCl pH 8.0, 50 mmol/L NaCl, 1 mmol/L EDTA, 1 mmoL/L DTT, 1 mmol/L PMSF and 1% DMSO. Trichloroacetic acid was added to end the reaction, and SPA beads coated with PVT streptavidin were added followed by 1 hour reaction at room temperature. A TopCount NXT plate reader was used to measure the methylation value of the substrate peptide. The measured values were converted to percent activity, setting the mean value for wells treated with DMSO as 100% and the background mean value as 0%.

[1] = read-out: Enzyme inhibitory activity (IC50, nM) EZH1, 2.3 nmol/L EZH1, 90 minutes at room temperature

Sequence of EZH1 (Q92800 whole entry): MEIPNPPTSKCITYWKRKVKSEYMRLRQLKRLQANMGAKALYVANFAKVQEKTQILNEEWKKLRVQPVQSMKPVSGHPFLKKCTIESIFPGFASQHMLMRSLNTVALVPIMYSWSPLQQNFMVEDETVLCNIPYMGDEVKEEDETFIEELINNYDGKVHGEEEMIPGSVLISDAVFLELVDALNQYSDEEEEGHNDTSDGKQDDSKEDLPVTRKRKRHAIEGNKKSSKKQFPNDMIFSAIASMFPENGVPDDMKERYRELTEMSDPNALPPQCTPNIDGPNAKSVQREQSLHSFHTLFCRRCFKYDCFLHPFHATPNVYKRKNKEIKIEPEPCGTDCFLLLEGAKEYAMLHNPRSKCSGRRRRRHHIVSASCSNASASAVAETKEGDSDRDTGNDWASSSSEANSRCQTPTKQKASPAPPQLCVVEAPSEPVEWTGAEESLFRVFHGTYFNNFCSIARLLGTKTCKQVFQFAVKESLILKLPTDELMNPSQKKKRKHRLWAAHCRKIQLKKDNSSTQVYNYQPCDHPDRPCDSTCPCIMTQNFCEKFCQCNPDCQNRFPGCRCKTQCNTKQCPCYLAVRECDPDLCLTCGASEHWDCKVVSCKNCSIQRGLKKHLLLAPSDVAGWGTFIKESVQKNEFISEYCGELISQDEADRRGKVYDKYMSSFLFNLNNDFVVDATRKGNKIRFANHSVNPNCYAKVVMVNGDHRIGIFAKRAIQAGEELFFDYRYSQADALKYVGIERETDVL
Sequence of EZH1 (O75530 whole entry partner): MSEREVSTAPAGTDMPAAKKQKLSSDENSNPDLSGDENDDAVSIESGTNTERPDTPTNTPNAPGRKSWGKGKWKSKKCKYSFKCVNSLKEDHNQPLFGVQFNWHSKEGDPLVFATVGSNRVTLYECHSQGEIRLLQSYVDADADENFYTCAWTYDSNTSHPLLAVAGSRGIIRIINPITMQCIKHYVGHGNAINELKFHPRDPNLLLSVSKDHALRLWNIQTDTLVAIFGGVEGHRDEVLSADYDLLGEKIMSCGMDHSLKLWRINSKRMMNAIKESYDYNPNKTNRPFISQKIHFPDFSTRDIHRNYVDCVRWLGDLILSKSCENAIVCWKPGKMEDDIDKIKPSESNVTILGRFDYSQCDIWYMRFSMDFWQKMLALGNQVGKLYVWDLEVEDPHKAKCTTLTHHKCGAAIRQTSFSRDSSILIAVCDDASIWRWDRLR
Sequence of EZH1 (Q15022 whole entry partner): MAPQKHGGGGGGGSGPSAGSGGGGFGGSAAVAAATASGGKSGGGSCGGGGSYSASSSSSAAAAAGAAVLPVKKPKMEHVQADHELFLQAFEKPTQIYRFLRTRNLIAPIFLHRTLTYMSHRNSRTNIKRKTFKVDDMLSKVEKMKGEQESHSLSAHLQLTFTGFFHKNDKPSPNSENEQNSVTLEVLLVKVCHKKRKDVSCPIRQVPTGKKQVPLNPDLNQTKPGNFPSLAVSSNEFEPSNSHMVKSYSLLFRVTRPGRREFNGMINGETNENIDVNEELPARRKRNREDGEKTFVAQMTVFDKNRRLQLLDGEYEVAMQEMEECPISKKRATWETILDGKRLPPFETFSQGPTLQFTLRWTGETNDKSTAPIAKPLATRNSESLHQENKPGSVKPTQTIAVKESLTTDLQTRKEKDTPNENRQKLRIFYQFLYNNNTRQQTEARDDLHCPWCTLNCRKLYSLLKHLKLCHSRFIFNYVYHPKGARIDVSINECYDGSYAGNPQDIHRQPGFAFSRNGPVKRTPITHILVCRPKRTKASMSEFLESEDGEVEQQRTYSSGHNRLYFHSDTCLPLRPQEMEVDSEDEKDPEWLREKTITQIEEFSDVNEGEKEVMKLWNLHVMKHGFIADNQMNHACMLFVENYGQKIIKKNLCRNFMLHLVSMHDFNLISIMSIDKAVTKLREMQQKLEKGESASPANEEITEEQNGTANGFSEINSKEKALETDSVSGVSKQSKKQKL
Sequence of EZH1 (Q09028 whole entry partner): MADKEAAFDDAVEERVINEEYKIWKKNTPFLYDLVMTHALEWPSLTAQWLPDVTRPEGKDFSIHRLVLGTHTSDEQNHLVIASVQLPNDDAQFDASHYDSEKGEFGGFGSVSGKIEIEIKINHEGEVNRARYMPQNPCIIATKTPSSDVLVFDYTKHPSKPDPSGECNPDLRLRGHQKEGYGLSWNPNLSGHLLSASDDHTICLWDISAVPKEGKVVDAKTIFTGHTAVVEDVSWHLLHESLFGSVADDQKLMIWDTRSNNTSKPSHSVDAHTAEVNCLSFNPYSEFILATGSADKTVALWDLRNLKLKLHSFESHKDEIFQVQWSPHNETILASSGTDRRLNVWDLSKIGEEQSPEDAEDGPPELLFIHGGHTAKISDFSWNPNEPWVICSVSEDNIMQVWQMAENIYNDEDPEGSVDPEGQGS
Sequence of EZH1 (Q6ZN18 whole entry partner): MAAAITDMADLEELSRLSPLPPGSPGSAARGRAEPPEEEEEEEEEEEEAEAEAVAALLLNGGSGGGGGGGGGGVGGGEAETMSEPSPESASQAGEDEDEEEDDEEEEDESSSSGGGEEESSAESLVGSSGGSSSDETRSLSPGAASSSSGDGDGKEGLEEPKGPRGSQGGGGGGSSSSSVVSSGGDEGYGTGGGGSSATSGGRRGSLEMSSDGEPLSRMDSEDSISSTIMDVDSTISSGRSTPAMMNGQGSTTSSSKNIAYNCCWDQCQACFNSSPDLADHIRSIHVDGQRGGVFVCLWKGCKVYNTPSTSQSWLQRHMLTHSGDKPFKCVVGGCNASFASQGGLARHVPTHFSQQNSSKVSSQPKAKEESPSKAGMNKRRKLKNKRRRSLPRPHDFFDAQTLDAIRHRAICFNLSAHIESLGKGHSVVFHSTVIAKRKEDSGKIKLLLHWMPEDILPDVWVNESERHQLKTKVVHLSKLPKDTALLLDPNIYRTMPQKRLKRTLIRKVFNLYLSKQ

SMILES | GI50 (KARPAS-422 cells) [nM] | IC50 (EZH1) [nM] | IC50 (EZH1; [1]) [nM]
Cc1cc(C)c(CN2CCc3c(C)c4c(c(C)c3C2=O)OC(C)(C23CCC(N(C)C)(CC2)CC3)O4)c(=O)[nH]1 (single isomer, unassigned) [Compound 23, 6-((4,6-dimethyl-2-oxo-1,2-dihydropyridin-3-yl)methyl)-2-(4-(dimethylamino)bicyclo[2.2.2]octan-1-yl)-2,4,9-trimethyl-7,8-dihydro-[1,3]dioxolo[4,5-g]isoquinolin-5(6H)-one] | 3.7 to 6.8 | 12 | 
Cc1cc(C)c(CN2CCc3c(c(C)c4c(c3-c3ccco3)O[C@](C)([C@H]3CC[C@H](N(C)C)CC3)O4)C2=O)c(=O)[nH]1 [Compound 30, (R)-6-((4,6-dimethyl-2-oxo-1,2-dihydropyridin-3-yl)methyl)-2-(trans-4-(dimethylamino)cyclohexyl)-9-(furan-2-yl)-2,4-dimethyl-7,8-dihydro-[1,3]dioxolo[4,5-g]isoquinolin-5(6H)-one] | 3.9 to 8.4 | 8.3 to 10 | 
Cc1cc(C)c(CN2CCc3c(c(C)c4c(c3-c3cccs3)O[C@](C)([C@H]3CC[C@H](N(C)C)CC3)O4)C2=O)c(=O)[nH]1 [Compound 32, (R)-6-((4,6-dimethyl-2-oxo-1,2-dihydropyridin-3-yl)methyl)-2-(trans-4-(dimethylamino)cyclohexyl)-2,4-dimethyl-9-(thiophen-2-yl)-7,8-dihydro-[1,3]dioxolo[4,5-g]isoquinolin-5(6H)-one] | 3.4 |  | 12
Cc1cc(C)c(CN2CCc3c(c(C)c4c(c3-c3ccncc3)O[C@](C)([C@H]3CC[C@H](N(C)C)CC3)O4)C2=O)c(=O)[nH]1 [Compound 34, (R)-6-((4,6-dimethyl-2-oxo-1,2-dihydropyridin-3-yl)methyl)-2-(trans-4-(dimethylamino)cyclohexyl)-2,4-dimethyl-9-(pyridin-4-yl)-7,8-dihydro-[1,3]dioxolo[4,5-g]isoquinolin-5(6H)-one] | 3.7 |  | 32

More lines, now with the values ahead:

GI50 (KARPAS-422 cells) [nM] | IC50 (EZH1) [nM] | IC50 (EZH1; [1]) [nM] | SMILES
4.4 to 5.5 |  | 22 | Cc1cc(C)c(CN2CCc3c(c(C)c4c(c3-c3ccc(C)o3)O[C@](C)([C@H]3CC[C@H](N(C)C)CC3)O4)C2=O)c(=O)[nH]1 [Compound 40, (R)-6-((4,6-dimethyl-2-oxo-1,2-dihydropyridin-3-yl)methyl)-2-(trans-4-(dimethylamino)cyclohexyl)-2,4-dimethyl-9-(5-methylfuran-2-yl)-7,8-dihydro-[1,3]dioxolo[4,5-g]isoquinolin-5(6H)-one]
5.1 |  | 14 | Cc1cc(C)c(CN2CCc3c(c(C)c4c(c3-c3cccnc3)O[C@](C)([C@H]3CC[C@H](N(C)C)CC3)O4)C2=O)c(=O)[nH]1 [Compound 44, (R)-6-((4,6-dimethyl-2-oxo-1,2-dihydropyridin-3-yl)methyl)-2-(trans-4-(dimethylamino)cyclohexyl)-2,4-dimethyl-9-(pyridin-3-yl)-7,8-dihydro-[1,3]dioxolo[4,5-g]isoquinolin-5(6H)-one]
5.5 |  | 20 | Cc1cc(C)c(CN2CCc3c(c(C)c4c(c3-c3cccn3C)O[C@](C)([C@H]3CC[C@H](N(C)C)CC3)O4)C2=O)c(=O)[nH]1 [Compound 48, (R)-6-((4,6-dimethyl-2-oxo-1,2-dihydropyridin-3-yl)methyl)-2-(trans-4-(dimethylamino)cyclohexyl)-2,4-dimethyl-9-(1-methyl-1H-pyrrol-2-yl)-7,8-dihydro-[1,3]dioxolo[4,5-g]isoquinolin-5(6H)-one]
4.9 |  | 22 | Cc1cc(C)c(CN2CCc3c(c(C)c4c(c3-c3ccsc3)O[C@](C)([C@H]3CC[C@H](N(C)C)CC3)O4)C2=O)c(=O)[nH]1 [Compound 50, (R)-6-((4,6-dimethyl-2-oxo-1,2-dihydropyridin-3-yl)methyl)-2-(trans-4-(dimethylamino)cyclohexyl)-2,4-dimethyl-9-(thiophen-3-yl)-7,8-dihydro-[1,3]dioxolo[4,5-g]isoquinolin-5(6H)-one]
5.9 |  | 18 | Cc1cc(C)c(CN2CCc3c(c(C)c4c(c3-c3cncs3)O[C@](C)([C@H]3CC[C@H](N(C)C)CC3)O4)C2=O)c(=O)[nH]1 [Compound 52, (R)-6-((4,6-dimethyl-2-oxo-1,2-dihydropyridin-3-yl)methyl)-2-(trans-4-(dimethylamino)cyclohexyl)-2,4-dimethyl-9-(thiazol-5-yl)-7,8-dihydro-[1,3]dioxolo[4,5-g]isoquinolin-5(6H)-one]
